Test results taken from patent US20230144619A1, “SALT OF ARYLAMINOPURINE DERIVATIVE, PREPARATION METHOD THEREFOR AND USE THEREOF” (CSPC Zhongqi Pharmaceutical Technology (Shijiazhuang) Co., …, priority 2020, published 2023).
Counter-ions that a name gives are not always drawn.

Experiments:
Long-term stability test = assay type: physicochemical; details: 25±2° C., relative humidity 60%±5%; for Content (%) / Moisture (%) / Related substances (%): packaged; for Acidity: pH value of 10 mg in 10 mL water
Experimental: Detection instrument: Karl Fischer moisture titrator/915 KF Ti-Touch
Test method: After the instrument was balanced, a proper amount (about 200 mg) of the test sample was taken, precisely weighed, and added to a titration cup, absolute methanol was used as the solvent, and a moisture titration solution was used for the direct measurement, and an average value was obtained by measuring each test sample twice.
Detection Instrument: High performance liquid chromatograph/Waters e2695-2489
Octadecyl silane bonded to silica gel was used as a filler (the applicable range of the pH value should be greater than 10.0), 20 mmol/L of disodium hydrogen phosphate solution (the pH value was adjusted to 10.0 with sodium hydroxide)-acetonitrile (65:35) was used as the mobile phase; the detection wavelength was 287 nm, and the column temperature was 30° C. The number of theoretical plates should be not less than 3000.
Determination method: About 20 mg of the sample was taken and precisely weighed, put in a 100 mL volumetric flask. A diluent (50% methanol/water) was added to dissolve and dilute the sample to the scale. The content was shaken uniformly, and 10 μL was precisely metered and injected into a liquid chromatograph, and the chromatogram was recorded; another appropriate amount of the reference substance was taken, and the same method was used for determination. The result was obtained by calculating the peak area according to the external standard method.
Detection instrument: Mettler Toledo S210-K pH meter
Test method: Based on the operation according to the pH value measurement method, 10 mg of a sample was precisely weighed, then 10 mL of freshly boiled and cooled purified water was added to dissolve the sample, and the mixture was shaken uniformly, and then the pH value was measured.
12. Measurement of Related Substances
Detection instrument: High performance liquid chromatograph/Waters e2695-2489
Chromatographic Conditions:
Octadecylsilane bonded to silica gel was used as a filler (Model: Waters Xbridge C18 chromatographic column, with a length of 250 mm, an inner diameter of 4.6 mm, and a filler particle size of 5 μm), the detection wavelength was 250 nm, the column temperature was 35° C., and the flow rate was 1.0 mL/minute, the mobile phase A was 0.02 mol/L of a disodium hydrogen phosphate solution (the pH value was adjusted to 10.0 with a sodium hydroxide solution), the mobile phase B was acetonitrile, and the diluent was methanol, and the temperature of the sample plate was 4° C.
Test method: The system applicability test was performed according to the requirements, and the test sample solution, the control solution, and the sensitivity solution were prepared. Each 10 μL of the control solution and the test sample solution were precisely metered and injected into a liquid chromatograph, and the chromatogram was recorded. The result was obtained by calculating the peak area according to the self-dilution control method with the correction factor.
An appropriate amount of the salt sample obtained from Example 1 was taken, a medicinal low-density polyethylene sack was used as the internal packaging, and a polyester/aluminum/polyethylene composite bag for medicine packaging was used as the external packaging. Samples were taken respectively at the end of the 3rd, 6th, 9th, 12th, and 18th months after being stored at a temperature of 25±2° C. under a relative humidity of 60%±5%. The appearances were compared, followed by measuring other investigation indexes. The results were compared with those measured in the 0th month.

KDR(h) = KDR(h) (Homo sapiens, UniProt P35968); assay: Kinase inhibitory activity test (per WO2011/147066); assay type: biochemical
Experimental: (§1) The salt sample obtained from Example 1 was tested according to the kinase inhibitory activity test described in the biological assessment of the patent application WO2011/147066.

MET = MET (Homo sapiens, UniProt P08581); assay: as above; assay type: biochemical; details: result in words
Experimental: as §1

ALK = ALK (Homo sapiens, UniProt Q9UM73); assay: as above; assay type: biochemical; details: result in words
Experimental: as §1

FLT3-ITD(h) = FLT3-ITD(h) (Homo sapiens, UniProt P36888); assay: as above; assay type: biochemical
Experimental: as §1

FLT3(h) = FLT3(h) (Homo sapiens, UniProt P36888); assay: as above; assay type: biochemical
Experimental: as §1

Fyn(h) = Fyn(h) (Homo sapiens, UniProt P06241); assay: as above; assay type: biochemical
Experimental: as §1

VEGFR2 = VEGFR2 (Homo sapiens, UniProt P35968); assay: as above; assay type: biochemical; details: VEGFR2, result in words
Experimental: as §1

Yes = Yes (Homo sapiens, UniProt P07947); assay: as above; assay type: biochemical
Experimental: as §1

PDGFRα = PDGFRα (Homo sapiens, UniProt P16234); assay: as above; assay type: biochemical; details: result in words
Experimental: as §1

FGFRl(h) = FGFRl(h) (Homo sapiens, UniProt P11362); assay: as above; assay type: biochemical
Experimental: as §1

[1] = tested on: human non-small cell lung cancer HCC827; assay: In-vivo anti-tumor test, non-small cell lung cancer model; design: species or system nude mice; details: once daily oral administration for 30 days
Experimental: The salt sample obtained from Example 1 was tested (specifically for FLT3-ITD acute myeloid leukemia, non-small cell lung cancer with EGFR activating mutations, or Ph-positive chronic myeloid leukemia) according to the in-vivo anti-tumor test described in the biological assessment of the patent application WO2011/147066.

FLT3(h), sequence (P36888 27-993): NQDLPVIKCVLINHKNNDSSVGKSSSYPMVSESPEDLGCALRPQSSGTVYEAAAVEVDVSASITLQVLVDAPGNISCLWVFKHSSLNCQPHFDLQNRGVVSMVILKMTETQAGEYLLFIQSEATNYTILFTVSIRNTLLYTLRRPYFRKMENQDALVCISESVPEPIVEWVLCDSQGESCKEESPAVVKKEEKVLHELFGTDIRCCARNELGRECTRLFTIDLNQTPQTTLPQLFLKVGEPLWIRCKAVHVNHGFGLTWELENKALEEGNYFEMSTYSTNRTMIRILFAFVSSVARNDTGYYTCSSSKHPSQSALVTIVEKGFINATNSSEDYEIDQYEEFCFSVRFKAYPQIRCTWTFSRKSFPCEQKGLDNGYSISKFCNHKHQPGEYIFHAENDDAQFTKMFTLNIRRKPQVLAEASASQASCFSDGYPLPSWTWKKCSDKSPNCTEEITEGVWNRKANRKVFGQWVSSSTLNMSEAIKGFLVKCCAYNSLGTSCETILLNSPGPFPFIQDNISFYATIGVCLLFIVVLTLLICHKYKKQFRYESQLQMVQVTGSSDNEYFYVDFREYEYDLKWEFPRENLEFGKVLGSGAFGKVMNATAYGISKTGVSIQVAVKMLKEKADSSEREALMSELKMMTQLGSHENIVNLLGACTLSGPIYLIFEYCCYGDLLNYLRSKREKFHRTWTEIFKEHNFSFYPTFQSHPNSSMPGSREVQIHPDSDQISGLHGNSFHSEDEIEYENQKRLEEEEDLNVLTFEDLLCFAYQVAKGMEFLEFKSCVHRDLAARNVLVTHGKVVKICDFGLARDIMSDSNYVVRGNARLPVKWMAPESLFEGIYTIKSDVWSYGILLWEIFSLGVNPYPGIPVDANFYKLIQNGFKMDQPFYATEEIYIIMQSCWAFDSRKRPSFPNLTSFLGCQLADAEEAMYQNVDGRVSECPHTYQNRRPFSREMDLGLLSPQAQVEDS
MET, sequence (P08581 25-1390): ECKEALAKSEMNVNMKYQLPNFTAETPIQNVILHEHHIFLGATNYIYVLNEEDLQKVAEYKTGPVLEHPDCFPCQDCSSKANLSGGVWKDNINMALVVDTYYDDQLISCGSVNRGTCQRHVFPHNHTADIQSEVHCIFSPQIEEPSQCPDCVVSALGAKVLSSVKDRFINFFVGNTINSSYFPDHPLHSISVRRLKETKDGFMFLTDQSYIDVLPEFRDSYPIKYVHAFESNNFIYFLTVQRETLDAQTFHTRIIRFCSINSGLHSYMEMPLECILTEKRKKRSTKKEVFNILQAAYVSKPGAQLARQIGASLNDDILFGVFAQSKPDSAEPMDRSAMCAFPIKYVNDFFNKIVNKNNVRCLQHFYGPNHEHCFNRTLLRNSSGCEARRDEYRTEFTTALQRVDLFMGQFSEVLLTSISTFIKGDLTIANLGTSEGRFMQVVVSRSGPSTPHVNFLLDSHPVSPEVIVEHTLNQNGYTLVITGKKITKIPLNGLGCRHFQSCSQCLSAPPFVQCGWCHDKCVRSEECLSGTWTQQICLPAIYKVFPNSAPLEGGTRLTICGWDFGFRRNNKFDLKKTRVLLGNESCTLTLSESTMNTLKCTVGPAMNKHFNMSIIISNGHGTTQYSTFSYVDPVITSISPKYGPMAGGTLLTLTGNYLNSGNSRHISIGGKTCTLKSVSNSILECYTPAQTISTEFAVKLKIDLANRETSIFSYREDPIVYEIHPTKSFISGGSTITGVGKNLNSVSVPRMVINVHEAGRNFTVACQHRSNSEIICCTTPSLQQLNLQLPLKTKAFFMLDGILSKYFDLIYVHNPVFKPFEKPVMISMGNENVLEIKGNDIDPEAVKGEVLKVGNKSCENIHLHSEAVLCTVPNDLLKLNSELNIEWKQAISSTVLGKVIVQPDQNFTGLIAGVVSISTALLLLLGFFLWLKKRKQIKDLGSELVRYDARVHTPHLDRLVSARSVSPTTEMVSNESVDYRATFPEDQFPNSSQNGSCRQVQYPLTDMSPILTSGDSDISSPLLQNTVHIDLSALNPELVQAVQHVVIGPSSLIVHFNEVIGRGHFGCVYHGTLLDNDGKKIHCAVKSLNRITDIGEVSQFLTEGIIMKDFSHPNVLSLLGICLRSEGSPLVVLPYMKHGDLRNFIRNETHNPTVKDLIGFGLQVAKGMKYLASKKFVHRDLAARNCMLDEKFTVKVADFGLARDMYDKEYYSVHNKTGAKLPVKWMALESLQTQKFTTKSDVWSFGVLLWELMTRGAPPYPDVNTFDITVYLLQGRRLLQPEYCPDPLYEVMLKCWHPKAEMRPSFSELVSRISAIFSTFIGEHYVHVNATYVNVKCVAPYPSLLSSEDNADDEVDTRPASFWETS
FGFRl(h), sequence (P11362 22-822): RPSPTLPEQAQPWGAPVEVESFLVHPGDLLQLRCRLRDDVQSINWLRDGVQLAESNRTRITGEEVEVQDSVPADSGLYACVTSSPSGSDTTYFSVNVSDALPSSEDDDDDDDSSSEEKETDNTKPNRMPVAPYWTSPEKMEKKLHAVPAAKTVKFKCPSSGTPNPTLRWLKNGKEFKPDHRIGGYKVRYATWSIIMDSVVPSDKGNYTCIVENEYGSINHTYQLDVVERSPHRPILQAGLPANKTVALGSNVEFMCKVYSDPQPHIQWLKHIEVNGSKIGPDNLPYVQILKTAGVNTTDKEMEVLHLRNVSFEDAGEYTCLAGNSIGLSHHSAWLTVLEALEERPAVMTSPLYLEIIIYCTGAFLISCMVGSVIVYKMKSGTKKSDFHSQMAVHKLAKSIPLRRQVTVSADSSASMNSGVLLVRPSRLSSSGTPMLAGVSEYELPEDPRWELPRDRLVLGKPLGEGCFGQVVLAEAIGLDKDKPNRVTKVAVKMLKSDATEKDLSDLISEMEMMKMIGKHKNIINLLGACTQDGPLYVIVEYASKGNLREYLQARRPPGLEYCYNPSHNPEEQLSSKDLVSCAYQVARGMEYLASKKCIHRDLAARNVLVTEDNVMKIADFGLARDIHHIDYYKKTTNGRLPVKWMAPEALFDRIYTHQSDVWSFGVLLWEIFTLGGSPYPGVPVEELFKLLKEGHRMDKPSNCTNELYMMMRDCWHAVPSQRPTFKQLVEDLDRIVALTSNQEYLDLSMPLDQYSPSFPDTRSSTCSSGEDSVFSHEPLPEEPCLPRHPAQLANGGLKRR
Yes, sequence (P07947 whole entry): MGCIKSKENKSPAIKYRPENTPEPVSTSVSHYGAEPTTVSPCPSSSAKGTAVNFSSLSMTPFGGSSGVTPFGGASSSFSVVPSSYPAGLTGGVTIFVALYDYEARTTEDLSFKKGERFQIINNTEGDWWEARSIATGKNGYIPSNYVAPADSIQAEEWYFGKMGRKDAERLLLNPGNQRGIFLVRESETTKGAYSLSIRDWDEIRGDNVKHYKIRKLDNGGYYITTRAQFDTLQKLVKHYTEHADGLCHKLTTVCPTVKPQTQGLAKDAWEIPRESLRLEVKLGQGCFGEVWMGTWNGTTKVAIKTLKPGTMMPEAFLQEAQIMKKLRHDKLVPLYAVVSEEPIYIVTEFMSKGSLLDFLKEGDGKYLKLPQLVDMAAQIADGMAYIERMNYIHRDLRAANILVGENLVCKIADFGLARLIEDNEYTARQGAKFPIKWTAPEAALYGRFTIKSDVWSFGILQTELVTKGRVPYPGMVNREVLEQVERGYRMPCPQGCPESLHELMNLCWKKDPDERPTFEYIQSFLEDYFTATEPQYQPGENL
VEGFR2, sequence (P35968 20-1356): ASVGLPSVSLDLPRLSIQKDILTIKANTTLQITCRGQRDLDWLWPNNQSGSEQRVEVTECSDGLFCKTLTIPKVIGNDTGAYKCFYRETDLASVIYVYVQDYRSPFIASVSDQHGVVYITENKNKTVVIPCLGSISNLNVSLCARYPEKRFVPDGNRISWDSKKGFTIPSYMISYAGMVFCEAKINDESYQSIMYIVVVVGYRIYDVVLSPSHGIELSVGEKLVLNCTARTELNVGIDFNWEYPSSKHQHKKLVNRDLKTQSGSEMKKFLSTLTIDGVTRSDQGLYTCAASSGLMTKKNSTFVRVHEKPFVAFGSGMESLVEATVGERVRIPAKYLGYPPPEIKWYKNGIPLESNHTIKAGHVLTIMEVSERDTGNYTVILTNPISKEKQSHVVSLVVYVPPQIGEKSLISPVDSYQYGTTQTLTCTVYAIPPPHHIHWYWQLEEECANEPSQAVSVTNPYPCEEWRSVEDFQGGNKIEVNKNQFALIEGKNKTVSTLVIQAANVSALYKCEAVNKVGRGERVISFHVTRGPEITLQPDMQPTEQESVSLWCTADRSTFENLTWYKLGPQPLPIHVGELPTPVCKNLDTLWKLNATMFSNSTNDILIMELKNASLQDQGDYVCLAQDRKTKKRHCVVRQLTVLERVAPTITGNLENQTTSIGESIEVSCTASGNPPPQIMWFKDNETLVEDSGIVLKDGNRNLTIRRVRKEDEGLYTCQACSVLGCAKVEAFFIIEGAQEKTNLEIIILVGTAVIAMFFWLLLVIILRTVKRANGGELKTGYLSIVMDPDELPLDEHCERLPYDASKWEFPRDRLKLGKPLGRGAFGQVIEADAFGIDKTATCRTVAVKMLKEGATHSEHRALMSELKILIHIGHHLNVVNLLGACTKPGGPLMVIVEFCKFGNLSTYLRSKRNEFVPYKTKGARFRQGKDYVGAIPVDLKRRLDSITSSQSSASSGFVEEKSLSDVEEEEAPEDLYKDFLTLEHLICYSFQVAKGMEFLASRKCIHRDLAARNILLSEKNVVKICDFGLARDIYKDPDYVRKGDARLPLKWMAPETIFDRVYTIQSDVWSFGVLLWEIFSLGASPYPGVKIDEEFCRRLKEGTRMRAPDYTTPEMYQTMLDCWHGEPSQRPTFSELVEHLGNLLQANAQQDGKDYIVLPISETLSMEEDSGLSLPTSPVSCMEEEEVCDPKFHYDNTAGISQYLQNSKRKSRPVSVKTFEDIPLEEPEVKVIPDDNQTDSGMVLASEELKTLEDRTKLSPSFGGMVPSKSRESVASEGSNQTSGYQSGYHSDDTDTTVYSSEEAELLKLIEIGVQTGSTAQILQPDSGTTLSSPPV
KDR(h), sequence (P35968 20-1356): as above

CC(C)n1c(Nc2cccnc2)nc2cnc(Nc3ccc(N4CCN(C)CC4)cc3)nc21 [Example 1, arylaminopurine derivative.trihydrochloride.pentahydrate]
Content (%) (Long-term stability test; 0 Month): 100.9%
Moisture (%) (Long-term stability test; 0 Month): 13.9%
Related substances (%) (Long-term stability test; 0 Month): 0.33%
Content (%) (Long-term stability test; 3 Month): 100.4%
Moisture (%) (Long-term stability test; 3 Month): 13.9%
Related substances (%) (Long-term stability test; 3 Month): 0.34%
Content (%) (Long-term stability test; 6 Month): 100.8%
Moisture (%) (Long-term stability test; 6 Month): 14.3%
Related substances (%) (Long-term stability test; 6 Month): 0.34%
Content (%) (Long-term stability test; 9 Month): 101.7%
Moisture (%) (Long-term stability test; 9 Month): 14.3%
Related substances (%) (Long-term stability test; 9 Month): 0.31%
Content (%) (Long-term stability test; 12 Month): 99.6%
Moisture (%) (Long-term stability test; 12 Month): 13.9%
Related substances (%) (Long-term stability test; 12 Month): 0.34%
Content (%) (Long-term stability test; 18 Month): 100.2%
Moisture (%) (Long-term stability test; 18 Month): 14.2%
Related substances (%) (Long-term stability test; 18 Month): 0.26%
Acidity (Long-term stability test; 0 Month): 3.1
Acidity (Long-term stability test; 3 Month): 3.3
Acidity (Long-term stability test; 6 Month): 3.3
Acidity (Long-term stability test; 9 Month): 3.3
Acidity (Long-term stability test; 12 Month): 3.3
Acidity (Long-term stability test; 18 Month): 3.3
IC50 (KDR(h)): 323 nM
inhibition of kinase activity (MET): could inhibit the activities
inhibition of kinase activity (ALK): could inhibit the activities
IC50 (FLT3-ITD(h)): 3 to 10 nM
IC50 (FLT3(h)): 26 nM
IC50 (Fyn(h)): 34 nM
inhibition of kinase activity (VEGFR2): could inhibit the activities
IC50 (Yes): 4 nM
inhibition of kinase activity (PDGFRα): could inhibit the activities
IC50 (FGFRl(h)): 247 nM
growth of human non-small cell lung cancer HCC827 ([1]; 7.5, 15 and 30 mg/kg, dose dependence): dose-dependently inhibit the growth
tumor size compared with the initial tumor ([1]; HCC827, 7.5 mg/kg): tumor shrinkage
tumor size compared with the initial tumor ([1]; HCC827, 15 mg/kg): tumor shrinkage
regression of the tumor ([1]; HCC827, 30 mg/kg): nearly complete regression of the tumor
tumor size compared with the initial tumor ([1]; HCC827, 30 mg/kg): tumor shrinkage
